Assay results taken from ChEMBL document CHEMBL1201862, “PubChem BioAssay data set” (2004).
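Assay format: 96-well plates, 48-hour exposure. GI50 = concentration required for 50% inhibition of growth.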 Activity calls are given as the source filed them. No stated cut-off is given here; in the data, active = GI50 up to about 1.1 µM and inactive = higher.

How the values were obtained:
Assay in all cases: NCI anticancer screen, dose series, 48 h
A498 = test system: A498
DU-145 = test system: DU-145
HCT-15 = test system: HCT-15
HOP-62 = test system: HOP-62
HT-29 = test system: HT-29
Hs-578T = test system: Hs-578T
IGROV-1 = test system: IGROV-1
NCI-H23 = test system: NCI-H23
OVCAR-5 = test system: OVCAR-5
OVCAR-8 = test system: OVCAR-8
RPMI-8226 = test system: RPMI-8226
RXF 393 = test system: RXF 393
SK-MEL-5 = test system: SK-MEL-5
SN12C = test system: SN12C
SNB-75 = test system: SNB-75
SR = test system: SR
SW-620 = test system: SW-620
UO-31 = test system: UO-31
CCRF-CEM = test system: CCRF-CEM
LOX IMVI = test system: LOX IMVI

Row | SMILES | GI50 (A498) | GI50 (DU-145) | GI50 (HCT-15) | GI50 (HOP-62) | GI50 (HT-29) | GI50 (Hs-578T) | GI50 (IGROV-1) | GI50 (NCI-H23) | GI50 (OVCAR-5) | GI50 (OVCAR-8) | GI50 (RPMI-8226) | GI50 (RXF 393) | GI50 (SK-MEL-5) | GI50 (SN12C) | GI50 (SNB-75) | GI50 (SR) | GI50 (SW-620) | GI50 (UO-31) | GI50 (CCRF-CEM) | GI50 (LOX IMVI)
1 | COc1cc2c(cc1OCCN1CCN(CCOc3cc4c(cc3OC)C(=O)N3CCC[C@H]3C=N4)CC1)N=C[C@@H]1CCCN1C2=O | 37.1 µM (inactive) | 37.5 µM (inactive) | > 64.1 µM | 30.5 µM (inactive) | 36 µM (inactive) | 41.6 µM (inactive) | 33.5 µM (inactive) | 17.1 µM (inactive) | 26.2 µM (inactive) | 35.3 µM (inactive) | 1.56 µM (inactive) | 26.1 µM (inactive) | 17.8 µM (inactive) | 9.46 µM (inactive) | > 76.9 µM (inactive) | 0.362 µM (active) | 19.2 µM (inactive) | 35.8 µM (inactive) | – | –
2 | Cc1ccc(-n2cnc(C(=N)C#N)c2N)cc1 | > 100 µM (inactive) | > 100 µM (inactive) | > 100 µM | > 100 µM (inactive) | > 100 µM (inactive) | > 100 µM (inactive) | > 100 µM (inactive) | > 100 µM (inactive) | > 100 µM (inactive) | > 100 µM (inactive) | > 100 µM (inactive) | – | > 100 µM (inactive) | > 100 µM (inactive) | > 100 µM (inactive) | > 100 µM (inactive) | > 100 µM (inactive) | > 100 µM (inactive) | > 100 µM (inactive) | > 100 µM (inactive)
3 | CCOC(=O)CN1CC(C2=C(O)CN(CC(=O)OCC)C2=O)=CC1=O | > 100 µM (inactive) | > 100 µM (inactive) | > 100 µM | > 100 µM (inactive) | > 100 µM (inactive) | > 100 µM (inactive) | > 100 µM (inactive) | > 100 µM (inactive) | > 100 µM (inactive) | > 100 µM (inactive) | > 100 µM (inactive) | – | > 100 µM (inactive) | > 100 µM (inactive) | > 100 µM (inactive) | > 100 µM (inactive) | > 100 µM (inactive) | > 100 µM (inactive) | > 100 µM (inactive) | > 100 µM (inactive)
4 | COc1ccc(S(=O)(=O)NC(CCC(=O)NN)C(=O)NN)cc1 (stereo not given) | > 100 µM (inactive) | > 100 µM (inactive) | > 100 µM | > 100 µM (inactive) | > 100 µM (inactive) | > 100 µM (inactive) | > 100 µM (inactive) | > 100 µM (inactive) | > 100 µM (inactive) | > 100 µM (inactive) | > 100 µM (inactive) | – | > 100 µM (inactive) | > 100 µM (inactive) | > 100 µM (inactive) | > 100 µM (inactive) | > 100 µM (inactive) | > 100 µM (inactive) | > 100 µM (inactive) | > 100 µM (inactive)
5 | CCOC(=O)CCc1cccc2c1oc1c(CCNC(=O)OCC3c4ccccc4-c4ccccc43)cccc12 | > 100 µM (inactive) | > 100 µM (inactive) | > 100 µM | 16.2 µM (inactive) | – | 4.17 µM (inactive) | 21.3 µM (inactive) | 25.6 µM (inactive) | > 100 µM (inactive) | 24.9 µM (inactive) | > 100 µM (inactive) | – | 29.2 µM (inactive) | > 100 µM (inactive) | 13.1 µM (inactive) | 22.5 µM (inactive) | > 100 µM (inactive) | 34.9 µM (inactive) | > 100 µM (inactive) | 75.9 µM (inactive)
6 | O=C1CC(=O)NC(NN2C(=O)/C(=C/c3ccccc3)N=C2c2ccccc2)=N1 | > 100 µM (inactive) | > 100 µM (inactive) | > 100 µM | > 100 µM (inactive) | > 100 µM (inactive) | > 100 µM (inactive) | > 100 µM (inactive) | 39 µM (inactive) | > 100 µM (inactive) | > 100 µM (inactive) | > 100 µM (inactive) | > 100 µM (inactive) | > 100 µM (inactive) | > 100 µM (inactive) | > 100 µM (inactive) | > 100 µM (inactive) | > 100 µM (inactive) | 32.9 µM (inactive) | > 100 µM (inactive) | –
7 | Cc1nc2c(O)cc3c4c(=O)n(C)c(=O)n(C)c4n(Cc4ccccc4)c3c2nc1C | 33 µM (inactive) | 18.3 µM (inactive) | 17.9 µM | 17.6 µM (inactive) | 15.8 µM (inactive) | 26.5 µM (inactive) | – | 19.3 µM (inactive) | 22.6 µM (inactive) | 18.3 µM (inactive) | 19.1 µM (inactive) | 13.2 µM (inactive) | 18.1 µM (inactive) | 19.9 µM (inactive) | – | 24.4 µM (inactive) | 19.5 µM (inactive) | 17.6 µM (inactive) | 4.99 µM (inactive) | 18.9 µM (inactive)
8 | O=c1[nH]nc(Cc2ccccc2)n1Nc1ccccc1 | > 100 µM (inactive) | > 100 µM (inactive) | > 100 µM | > 100 µM (inactive) | > 100 µM (inactive) | > 100 µM (inactive) | > 100 µM (inactive) | > 100 µM (inactive) | > 100 µM (inactive) | > 100 µM (inactive) | > 100 µM (inactive) | – | > 100 µM (inactive) | > 100 µM (inactive) | 17.2 µM (inactive) | > 100 µM (inactive) | > 100 µM (inactive) | > 100 µM (inactive) | > 100 µM (inactive) | > 100 µM (inactive)
9 | Cc1ccc(-c2nc(C)c(C(=O)Nc3ccc(Cl)cc3)s2)cc1 | 14.3 µM (inactive) | > 100 µM (inactive) | > 100 µM | 13.4 µM (inactive) | > 100 µM (inactive) | 21.8 µM (inactive) | 29.2 µM (inactive) | 24.2 µM (inactive) | 82.2 µM (inactive) | 18.8 µM (inactive) | > 100 µM (inactive) | – | 20.1 µM (inactive) | 31.4 µM (inactive) | 15.1 µM (inactive) | > 100 µM (inactive) | 41.7 µM (inactive) | 18.8 µM (inactive) | > 100 µM (inactive) | 31.1 µM (inactive)
10 | Clc1ccc(Cl)c(NNc2cc(Cl)ccc2Cl)c1 | > 10 µM (inactive) | 5.37 µM (inactive) | 3.61 µM | > 10 µM (inactive) | > 10 µM (inactive) | > 10 µM (inactive) | 4.67 µM (inactive) | 2.82 µM (inactive) | > 10 µM (inactive) | 7.64 µM (inactive) | 4.3 µM (inactive) | 6.22 µM (inactive) | 2.76 µM (inactive) | 4.07 µM (inactive) | – | 8.81 µM (inactive) | > 10 µM (inactive) | – | 3.63 µM (inactive) | 3.57 µM (inactive)
11 | COC(=O)C1(Cc2ccc3c(c2)CCC3)Cc2ccccc2C1O (stereo not given) | 18.2 µM (inactive) | 39.4 µM (inactive) | 21.5 µM | 22.9 µM (inactive) | 16.7 µM (inactive) | 20 µM (inactive) | 21.6 µM (inactive) | 19.8 µM (inactive) | 28.6 µM (inactive) | 18.6 µM (inactive) | 24.5 µM (inactive) | – | 16.3 µM (inactive) | 15.2 µM (inactive) | > 10 µM (inactive) | 26.4 µM (inactive) | 17.3 µM (inactive) | 15.7 µM (inactive) | 13.1 µM (inactive) | 15.1 µM (inactive)
